This note sets out measurements from patent US5012004A, “Ether compounds and their production, and insecticidal and/or acaricidal compositions containing them” (priority 1987, dated 1991).

Assay type in all cases: in vivo
Test [1] deals with eggs of diamondback moth (Plutella xylostella). Description: Ovicidal test: mortality of eggs of diamondback moth on dipped radish cotyledons (Test Example 1). The note with it: 72 h, read-out: Mortality (%) of the eggs. The text has this: Seven days after sowing, adults of diamondback moth (Plutella xylostella) were released to cotyledons of three radishes for oviposition (about 15 eggs per 1 cotyledon). […] After air-drying, the seedlings were taken into a cup made of polyethylene at the bottom of which were placed a filter paper.

For test [2], the system named is adults of brown rice planthopper (Nilaparvata lugens). The test is described as follows: Mortality of adults of brown rice planthopper on dipped rice stems (Test Example 2). The following applies: 24 h, 200 fold dilution (ca. 500 ppm), one day thereafter, two replications. From the text:
(§1) One of Compound Nos. 1 to 38 (10 parts), polyoxyethylene styrylphenyl ether (14 parts), calcium dodecylbenzenesulfonate (6 parts), xylene (35 parts) and dimethylformamide (35 parts) are well mixed to make an emulsifiable concentrate.
Stems of rice plants (about 12 cm in length) were dipped in a 200 fold dilution (ca. 500 ppm) of the emulsifiable concentrate prepared according to Formulation Example 2. After air-drying, the stems were taken into a test tube and 10 adults of brown rice planthopper (Nilaparvata lugens) were released therein.

In test [3] the test system is female carmine spider mites (Tetranychus cinnabarinus). The test is described as follows: Plant damage by female carmine spider mites on kidney bean, pot spray plus soil application (Example 4). The note with it: ca. 500 ppm, 15 ml spray per pot plus 2 ml to soil, eight days thereafter. The protocol: as §1
Adults of female carmine spider mites (Tetranychus cinnabarinus) were permitted to live on leaves (10 mites per leaf) of kidney bean seven days after sowing in the pots, and the mites were kept at 25° C. in a greenhouse. After 6 days, a 200 fold dilution (ca. 500 ppm) of the emulsifiable concentrate prepared according to Formulation Example 2 was sprayed over the pots placed on a turn table at a spray volume of 15 ml per pot, and also 2 ml of the dilution were applied to the soil in each pot. Eight days thereafter, the plant damage by the mites was observed and evaluated according to the following criteria:
______________________________________
-: no material damage to leaves
+: slight damage to leaves

In test [4] the test system is last instar larvae of common mosquito (Culex pipiens pallens). The test is described as follows: Emergence inhibition of last instar larvae of common mosquito (Test Example 3). The following applies: read-out: Rate of emergence inhibition (%). The protocol:
as §1
An emulsifiable concentrate prepared according to Formulation Example 2 was diluted with water to make a concentration of 3.5 ppm. The dilution (100 ml) was charged in a plastic cup (each 180 ml volume), and twenty last instar larvae of common mosquito (Culex pipiens pallens) were released therein. Feeding was continued until emergence of all larvae, and the rate of emergence inhibition was observed.
The rate of emergence inhibition was determined according to the following criteria:
Rate of emergence inhibition […]
b: less than 90% to not less than 80% inhibition c: less than 80% inhibition

The mark [5] stands for this setting: 200 fold dilution (ca. 500 ppm), cotyledons dipped 30 seconds, three days thereafter, two replications.
The mark [6] stands for this setting: 3.5 ppm, twenty last instar larvae, until emergence.

Where two headings read alike, the source gives them in different places. Some results are limits rather than exact numbers.

By mortality is commonly meant the share of the test organisms that died. `FCCOc1ccc(C(F)F)cc1` [Compound No. 10, 1-difluoromethyl-4-(2-fluoroethoxy)benzene]: in test [1] (setting [5]), the mortality at 500 µg/mL came out at 100%.

In the case of `FCCOc1ccccc1-c1ccccc1` [Compound No. 20, 1-(2-fluoroethoxy)-2-phenylbenzene], the mortality at 500 µg/mL in test [2] and in test [1] (setting [5]) was 100% throughout.

Take `FCCOc1ccc2c(c1)OCO2` [compound 13]: the mortality at 500 µg/mL in test [1] (setting [5]) was found to be 100%.

On to `O=C1c2ccccc2-c2ccc(OCCF)cc21` [compound 37], for which the Plant damage entry in test [3] is recorded as “- ~ +”. Besides, in test [1] (setting [5]), the mortality at 500 µg/mL worked out at 100%.

As to `CC(C)(c1ccccc1)c1ccc(OCCF)cc1` [compound 31], in test [1] (setting [5]), the mortality at 500 µg/mL was found to be 100%.

With `O=C(c1ccccc1)c1ccc(OCCF)cc1` [compound 36], the Plant damage result in test [3] is given as “-”. In addition, the mortality at 500 µg/mL in test [1] (setting [5]) amounted to 100%.

As usually defined, the inhibition is the drop in the measured response relative to a control, in per cent. With `FCCOc1ccc(COc2ccc(Oc3ccccc3)cc2)cc1` [compound 19], the inhibition at 3.5 ppm in test [4] (setting [6]) was > 90%. Further, the mortality at 500 µg/mL in test [1] (setting [5]) amounted to 100%.

Take `FCCOc1ccc2oc3ccccc3c2c1` [Compound No. 35, 2-(2-fluoroethoxy)-dibenzofuran]: the Plant damage result in test [3] is “-”. Further, the inhibition at 3.5 ppm in test [4] was > 90%. In test [1] (setting [5]), the mortality at 500 µg/mL is 100%.

On to `FCCOc1cccc(COc2ccc(Oc3ccccc3)cc2)c1` [compound 18], for which the Plant damage result in test [3] is reported as “- ~ +”. In test [4] (setting [6]), the inhibition at 3.5 ppm was > 90%. Moreover, in test [1] (setting [5]), the mortality at 500 µg/mL was 100%.

For the compound `FCCOc1ccc(OCCF)cc1` [compound 11], the mortality at 500 µg/mL in test [2] and in test [1] was 100% each time. The Plant damage result in test [3] is given as “- ~ +”. For the same compound, the inhibition at 3.5 ppm in test [4] is > 90%.

On to `CC(C)(c1ccc(OCCF)cc1)c1ccc(OCCF)cc1` [compound 32], for which the inhibition at 3.5 ppm in test [4] (setting [6]) is > 90%. Further, the mortality at 500 µg/mL in test [1] (setting [5]) was 100%.

For `Cc1cc(Cl)ccc1N=CN(C)C` [B, N'-(4-chloro-2-methylphenyl)-N,N-dimethylformamidine, reference compound], in test [3], the Plant damage entry was “+”.

With `CC(CF)Oc1ccc(Oc2ccccc2)cc1` (stereo not shown) [compound 26], the inhibition at 3.5 ppm in test [4] (setting [6]) was > 90%. For the same compound, in test [1] (setting [5]), the mortality at 500 µg/mL was 100%.

As to `FCCOc1ccccc1Cl` [Compound No. 3], the mortality at 500 µg/mL in test [2] and in test [1] was 100% throughout.

On to `FCCOc1cccc(CBr)c1` [compound 15], for which the mortality at 500 µg/mL in test [1] was found to be 100%.

On to `FCCOc1cccc(-c2ccccc2)c1` [compound 21], for which the Plant damage entry in test [3] was “- ~ +”. For the same compound, the inhibition at 3.5 ppm in test [4] was > 90%. For the same compound, in test [1] (setting [5]), the mortality at 500 µg/mL worked out at 100%.

With `CC(F)COc1ccc(Oc2ccccc2)cc1` (stereo not shown) [compound 27], the inhibition at 3.5 ppm in test [4] (setting [6]) is > 90%. Besides, the mortality at 500 µg/mL in test [1] (setting [5]) was 100%.

For the compound `FCCOc1ccc(Cc2ccccc2)cc1` [compound 30], the mortality at 500 µg/mL in test [2] and in test [1] (setting [5]) was 100% in each case. For the same compound, in test [3], the Plant damage entry is recorded as “- ~ +”.

On to `FCCCCOc1ccc(Oc2ccccc2)cc1` [compound 25], for which the inhibition at 3.5 ppm in test [4] (setting [6]) is > 90%. Besides, the mortality at 500 µg/mL in test [1] (setting [5]) is 100%.

`Cc1ccc(OCCF)cc1` [compound 8]: the mortality at 500 µg/mL in test [1] worked out at 100%.

Take `FCCOc1ccccc1` [Compound No. 1]: the mortality at 500 µg/mL in test [1] is 100%.

`FCCOc1ccc(Sc2ccc(OCCF)cc2)cc1` [compound 34]: in test [4], the inhibition at 3.5 ppm is > 90%. Besides, in test [1] (setting [5]), the mortality at 500 µg/mL amounted to 100%.

In the case of `FCCOc1ccc(Oc2cc(F)cc(F)c2)cc1` [compound 24], the inhibition at 3.5 ppm in test [4] was > 90%. Also, the mortality at 500 µg/mL in test [1] (setting [5]) came out at 100%.

For the compound `Cc1cc(Cl)ccc1OCCF` [compound 9], in test [4], the inhibition at 3.5 ppm is > 90%. Moreover, the mortality at 500 µg/mL in test [1] is 100%.

In the case of `COc1cccc(OCCF)c1` [compound 5], the mortality at 500 µg/mL in test [1] turned out to be 100%.

Consider `Cc1cccc(OCCF)c1` [compound 7], for which, in test [1], the mortality at 500 µg/mL is 100%.

For the compound `FCCOc1ccc(-c2ccc(OCCF)cc2)cc1` [compound 12], the mortality at 500 µg/mL in test [1] was 100%.

On to `FCCOc1ccc(OCc2ccccc2)cc1` [A, reference compound], for which the mortality at 500 µg/mL in test [2] was determined as 0%. For the same compound, in test [4], the inhibition at 3.5 ppm is 80 to 90%.

With `FCCOc1ccc(CBr)cc1` [compound 16], the mortality at 500 µg/mL in test [1] turned out to be 100%.

As for `FCCOc1ccc(Sc2ccccc2)cc1` [compound 33], the mortality at 500 µg/mL in test [2] and in test [1] (setting [5]) was 100% throughout. In addition, the Plant damage entry in test [3] is “-”. Besides, the inhibition at 3.5 ppm in test [4] was > 90%.

For the compound `CCC(F)COc1ccc(Oc2ccccc2)cc1` (stereo not shown) [compound 28], the inhibition at 3.5 ppm in test [4] (setting [6]) was > 90%. For the same compound, the mortality at 500 µg/mL in test [1] (setting [5]) is 100%.

Turning to `FCCOc1cccc(Cl)c1` [compound 4], the mortality at 500 µg/mL in test [1] was 100%.

For the compound `FCCOc1ccc(Oc2ccccc2)cc1` [Compound No. 22, 1-(2-fluoroethoxy)-4-phenoxybenzene], the mortality at 500 µg/mL in test [2] and in test [1] (setting [5]) was 100% in each case. The Plant damage result in test [3] is on record as “- ~ +”. Moreover, the inhibition at 3.5 ppm in test [4] is > 90%.

For `FCCOc1ccc(F)cc1` [Compound No. 2], the mortality at 500 µg/mL in test [1] was 100%.

For the compound `Cc1ccccc1OCCF` [compound 6], in test [1], the mortality at 500 µg/mL worked out at 100%.

On to `FCCOc1cccc(Oc2ccccc2)c1` [compound 29], for which the mortality at 500 µg/mL in test [2] is 90%; in test [1] (setting [5]), 100%.

For the compound `FCCOc1ccc(OC2C=CCCC2)cc1` (stereo not shown) [compound 38], the Plant damage result in test [3] is reported as “-”. The mortality at 500 µg/mL in test [1] (setting [5]) came out at 100%.

For `FCCOc1ccccc1CBr` [compound 14], the mortality at 500 µg/mL in test [1] came to 100%.

With `FCCOc1ccc(Oc2cccc(F)c2)cc1` [Compound No. 23, 1-(2-fluoroethoxy)-4-(3-fluorophenoxy)benzene], the mortality at 500 µg/mL in test [2] and in test [1] (setting [5]) was 100% throughout. Besides, in test [4], the inhibition at 3.5 ppm was > 90%.

Turning to `FCCOc1ccccc1COc1ccc(Oc2ccccc2)cc1` [compound 17], the Plant damage entry in test [3] is given as “-”. The mortality at 500 µg/mL in test [1] (setting [5]) came to 100%.
